Source: patent publication US10071103B2, “Treatments for resistant acne” (VYOME BIOSCIENCES PVT. LTD., priority 2014, dated 2018)
≈ marks a conversion by molar mass, not a printed value. Like-named read-outs stand apart in the source and are kept apart here.

Columns and labels:
[1] = test system: P. acnes clinical isolates; assay: MIC of P. acnes isolated from acne patients (clinical isolates);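 note: anaerobic 96-well plate assay at 37 °C over 72 h, with Alamar blue dye as read-out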;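 for MIC: MIC in µg/mL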
Procedure: P. acnes were cultured in Brain Heart Infusion Agar (BHIA) at 37° C. for 48 hours under anaerobic condition. […] For bacterial inoculum, P. acnes culture turbidity was adjusted to 0.5 McFarland standard (approximately 1.5×10^8) and further diluted (100 times with sterile BHI broth). Diluted P. acnes suspension (100 μl) was added to each well except sterility control wells (column 12 of 96 well plate). Inoculated plates were incubated at 37° C. for 72 hours under anaerobic condition. After incubation, MIC was determined by adding Alamar blue dye.

IL-6 = assay: P. acnes-induced IL-6 release in THP-1 cells (ELISA); type: cell-based; details: for Effect on P. acnes-induced IL-6 levels (in words): Example 61, besifloxacin 10, 30 μg/ml, adapalene 0.04, 0.4 μg/ml; for Expression of Cytokines IL-6 (pg/ml) Mean: THP-1 cells, Table 71
Procedure: (§1) Method: Preparation of Stimulant for Inflammation: P. acnes culture suspension was prepared in PBS and the cell number in the suspension was adjusted to approximately 5×10^8 CFU/ml by measuring the cell density using a Densimat. The bacterial suspension was then heat killed at 80° C. for 30 min and stored at −80° C. until further use.
(§2) Cells were seeded in a 96-well format (2×10^5 THP-1 cells per well) in media containing 10% FBS. The cells were stimulated to induce inflammatory cytokines using 3 McFarland equivalent heat-killed P. acnes. Cells in control wells were treated with PBS. One hour after induction with P. acnes, test agents were added to the induced cells at appropriate concentrations to be tested (compound 91 at 25 μg/ml). The plates were incubated at 37° C. for 24 hours. After 24 h, the plates were centrifuged to pellet the cells and the supernatants were collected. The cell culture supernatants thus obtained were analyzed for levels of cytokines (IL-1α, IL-1β, IL-6 and IL-8) by ELISA using R&D Systems kits for individual cytokines following the manufacturer's instructions.
as §1, with “Preparation” for “Method: Preparation”, “stimulant” for “Stimulant”, “inflammation:” for “Inflammation:”
(§3) Cells were seeded in a 96-well format (2×10^5 THP-1 cells per well) in media containing 10% FBS. The cells were stimulated to induce inflammatory cytokines using 3 McFarland equivalent heat-killed P. acnes. Cells in control wells were treated with PBS. One hour after induction with P. acnes, test agents were added to the induced cells at appropriate concentrations (Besifloxacin at 10 and 30 μg/ml; Adapalene at 0.04 and 0.4 μg/ml). The plates were incubated at 37° C. for 24 hours. After 24 h, the plates were centrifuged to pellet the cells and the supernatants were collected. The cell culture supernatants thus obtained were analyzed for cytokine levels (IL-6 and IL-8) by ELISA using R&D Systems kits for individual cytokines following the manufacturer's instructions.

P. acnes MTCC 1951 [2] = assay: MIC by micro broth dilution (Alamar blue), clindamycin-susceptible P. acnes; type: cell-based, Propionibacterium acnes; details: Cutibacterium acnes, MTCC1951; Table 7; against P. acnes; read-out: MIC
Procedure: The plates were incubated at 37° C. for 48 h under anaerobic condition for P. acnes and 37° C. for 24 h for S. aureus The plates were read under Bio-Rad plate reader at 595 nm for optical density to generate the dose-response curves. The MIC of the test compound was recorded by addition of Alamar blue dye.
P. acnes (MTCC 3297, MTCC 1951& CCARM 9010) are cultured in Brain Heart Infusion (BHI) Broth at 37° C. for 48-72 h under anaerobic condition. The test compounds/formulations are initially diluted with suitable solvent and further diluted with BHI broth to get the required concentrations. Samples (100 μl) of different concentrations (prepared by serial dilution) are added to 96-well plate. To the wells, 100 μl of P. acnes BHI broth culture is added [culture turbidity adjusted against 0.5 McFarland standard (approx 1.5×10^8), and further diluted 100-fold with sterile BHI broth]. In addition Growth Control and Sterility Control are created using 100 μl each of P. acnes BHI broth culture and plain BHI broth, respectively.
Plates are incubated at 37° C. for 48-72 hrs under anaerobic condition. The plate is read under Bio-Rad plate reader @ 595 nm for optical density to generate the dose-response curves. The MIC of the test compound is recorded by addition of Alamar blue dye.
BHI broth and BHI agar media were prepared as per the manufacturer's instruction and autoclaved at 121° C. for 15 minutes. […] For MIC determination testing, gels are dissolved in the solvent and further diluted with BHI broth. Then, 96 wells plate are filled with 100 μl of BHI broth containing drug with different concentration to get the final concentrations of 0.06, 0.13, 0.25, 0.5, 1 and 2 μg/ml in different lanes (lane 1 to lane 6). Remaining lanes of the 96 well plate are used as growth control and sterility control. Finally, P. acnes culture suspension (approx 1.5×10^6) is added in all the wells except sterility control wells and plate is incubated at 37° C. for 48-72 h under anaerobic condition. At the end of 72 h, Alamar blue solution (20 μl) is added into the wells and incubated at 37° C. for 2 h. Plate is visualized for bacterial inhibitions and MIC values of the tested samples are determined. […]

P. acnes MTCC 1951 [3] = type: cell-based, Propionibacterium acnes; details: for MPC: P. acnes, 10^10 cells inoculum; for MPC/MIC: ratio against P. acnes
Procedure: 3 to 4 Petri plates containing 48 h P. acnes culture was suspended in sterile Phosphate buffer saline, PBS (pH 7.2) and turbidity was adjusted to optical density of 1 at 600 nm (10^9 cells/ml). 50 ml of this culture suspension was centrifuged at 4000 rpm for 40 min. The supernatant was discarded and pellet resuspended in 250 μl of sterile PBS. 50 μl of these cell suspensions (10^10 cells) was spread over the plates containing various concentrations of antibiotics (around MIC range). Plates were incubated at 37° C. for 48 h and the lowest concentration of the drug that allowed no growth was taken as its MPC.

IL-8 = assay: P. acnes-induced IL-8 release in THP-1 cells (ELISA); type: cell-based; details: THP-1 cells, Table 71
Procedure: as §1, §2
as §1, with “Preparation” for “Method: Preparation”, “stimulant” for “Stimulant”, “inflammation:” for “Inflammation:”
as §3

[4] = Cells + P. acnes + Adapalene 0.04 μg/ml
[5] = Cells + P. acnes + Adapalene 0.4 μg/ml

For `N[C@@H]1CCCCN(c2c(F)cc3c(=O)c(C(=O)O)cn(C4CC4)c3c2Cl)C1` [Besifloxacin], the “Susceptibility of P. acnes isolated from volunteers V3 and V21 (in words)” value [1] was “susceptible”, the “Susceptibility of clindamycin-nonresponder clinical isolates (in words)” value [1] was “susceptible” and the “Susceptibility of clinical isolates susceptible to clindamycin and erythromycin (in words)” value [1] was “susceptible”. The MIC ([1]; Cutibacterium acnes) was 0.25 µg/mL, the MIC ([1]; Cutibacterium acnes, P. acnes strain V5-2, clinical isolate susceptible to clindamycin and erythromycin) was 0.5 µg/mL and the MIC ([1]; Cutibacterium acnes, P. acnes strain V5-5, clinical isolate susceptible to clindamycin and erythromycin) was 0.5 µg/mL. For the same compound, the MIC ([1]; Cutibacterium acnes, P. acnes strain V5-7, clinical isolate susceptible to clindamycin and erythromycin) was 0.5 µg/mL, the MIC ([1]; Cutibacterium acnes, P. acnes strain V6-5, clinical isolate susceptible to clindamycin and erythromycin) was 0.5 µg/mL and the MIC ([1]; Cutibacterium acnes, P. acnes strain V6-6, clinical isolate susceptible to clindamycin and erythromycin) was 0.5 µg/mL. The MIC ([1]; Cutibacterium acnes, P. acnes strain V6-7, clinical isolate susceptible to clindamycin and erythromycin) was 0.5 µg/mL, the MIC ([1]; Cutibacterium acnes, P. acnes strain V7-3, clinical isolate susceptible to clindamycin and erythromycin) was 0.5 µg/mL and the MIC ([1]; Cutibacterium acnes, P. acnes strain V7-4, clinical isolate susceptible to clindamycin and erythromycin) was 0.5 µg/mL. The MIC ([1]; Cutibacterium acnes, P. acnes strain V7-14, clinical isolate susceptible to clindamycin and erythromycin) was 0.5 µg/mL, the MIC ([1]; Cutibacterium acnes, P. acnes strain V9-6E, clinical isolate susceptible to clindamycin and erythromycin) was 0.5 µg/mL and the MIC ([1]; Cutibacterium acnes, P. acnes strain V13-3E, clinical isolate susceptible to clindamycin and erythromycin) was 0.5 µg/mL. For the same compound, the MIC ([1]; Cutibacterium acnes, P. acnes strain V14-2E, clinical isolate susceptible to clindamycin and erythromycin) was 0.5 µg/mL, the MIC ([1]; Cutibacterium acnes, P. acnes strain V17-3E, clinical isolate susceptible to clindamycin and erythromycin) was 0.5 µg/mL and the MIC ([1]; P. acnes strain V2-9, clinical isolate susceptible to clindamycin and erythromycin) was 0.25 µg/mL. It also gave an MIC ([1]; P. acnes strain V3-9, clinical isolate susceptible to clindamycin and erythromycin) of 0.25 µg/mL, an MIC ([1]; P. acnes strain V3-10, clinical isolate susceptible to clindamycin and erythromycin) of 0.25 µg/mL and an MIC ([1]; P. acnes strain V4-6, clinical isolate susceptible to clindamycin and erythromycin) of 0.25 µg/mL. It also gave an MIC ([1]; P. acnes strain V4-8, clinical isolate susceptible to clindamycin and erythromycin) of 0.25 µg/mL, an MIC ([1]; P. acnes strain V4-13, clinical isolate susceptible to clindamycin and erythromycin) of 0.25 µg/mL and an MIC ([1]; P. acnes strain V12-2E, clinical isolate susceptible to clindamycin and erythromycin) of 0.25 µg/mL. For the same compound, the MIC ([1]; P. acnes strain V15B-1E, clinical isolate susceptible to clindamycin and erythromycin) was 0.25 µg/mL, the MIC ([1]; P. acnes strain V18-4E, clinical isolate susceptible to clindamycin and erythromycin) was 0.25 µg/mL and the MIC ([1]; P. acnes strain V19-2E, clinical isolate susceptible to clindamycin and erythromycin) was 0.25 µg/mL. The MIC ([1]; P. acnes strain V20-5E, clinical isolate susceptible to clindamycin and erythromycin) was 0.25 µg/mL, the “Effect on P. acnes-induced IL-6 levels (in words)” value (IL-6) was “concentration-dependent inhibitory effect” and the MIC (P. acnes MTCC 1951 [2]) was 0.5 µg/mL (≈ 1.27 µM). It also gave an MPC (P. acnes MTCC 1951 [3]) of 2 µg/mL and an MPC/MIC (P. acnes MTCC 1951 [3]) of 4.
For `COc1ccc(-c2ccc3cc(C(=O)O)ccc3c2)cc1C12CC3CC(CC(C3)C1)C2` [Adapalene, adapalene], the “Expression of Cytokines IL-8 (pg/ml) Mean” value (IL-8; [4]) was 2536.76 pg/mL, the “Expression of Cytokines IL-8 (pg/ml) Mean” value (IL-8; [5]) was 2579.87 pg/mL and the “Expression of Cytokines IL-6 (pg/ml) Mean” value (IL-6; [4]) was 308.82 pg/mL. The “Expression of Cytokines IL-6 (pg/ml) Mean” value (IL-6; [5]) was 162.76 pg/mL and the “Effect on P. acnes-induced IL-6 levels (in words)” value (IL-6) was “impart individual anti-inflammatory effects”.
`CC1CCc2c(N3CCC(O)CC3)c(F)cc3c(=O)c(C(=O)O)cn1c23` (centres unmarked) [Nadifloxacin] gave an MIC (P. acnes MTCC 1951 [2]) of 0.13 µg/mL (≈ 0.361 µM), an MPC (P. acnes MTCC 1951 [3]) of 1.2 µg/mL and an MPC/MIC (P. acnes MTCC 1951 [3]) of 9.2. The MPC/MIC (P. acnes MTCC 1951 [3]; listed as nadifloxacin) was roughly 8.
